Assay [1] addresses T1, Human CD73 (amino acid residues 27-549) (Homo sapiens, UniProt P21589).
T1 construct: Human CD73 (amino acid residues 27-549); His tag (N); made in house; host or cells: E. coli
T1 sequence (P21589 27-549): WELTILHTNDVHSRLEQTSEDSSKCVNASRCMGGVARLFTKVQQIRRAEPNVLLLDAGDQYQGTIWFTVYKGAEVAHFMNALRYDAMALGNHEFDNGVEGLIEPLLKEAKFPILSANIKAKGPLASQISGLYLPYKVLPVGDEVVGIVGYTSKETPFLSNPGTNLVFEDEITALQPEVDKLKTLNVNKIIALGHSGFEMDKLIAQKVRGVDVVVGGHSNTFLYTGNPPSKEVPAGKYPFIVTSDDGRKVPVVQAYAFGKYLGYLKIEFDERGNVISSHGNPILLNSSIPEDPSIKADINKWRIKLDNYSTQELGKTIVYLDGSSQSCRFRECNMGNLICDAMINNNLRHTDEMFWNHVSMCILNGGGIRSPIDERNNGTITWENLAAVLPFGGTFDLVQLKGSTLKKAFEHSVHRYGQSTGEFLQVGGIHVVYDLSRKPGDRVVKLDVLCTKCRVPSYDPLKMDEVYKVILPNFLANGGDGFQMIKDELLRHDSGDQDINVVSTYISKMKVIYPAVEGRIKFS
Description: CD73 enzymatic assay (luciferase-based indirect assay, CellTiter-Glo). In kind it is biochemical. The note with it: 0.4 nM CD73, 150 μM AMP, 1 hour at room temperature. As to the method: CD73 enzymatic activity was measured in a luciferase-based indirect assay using CellTiter-Glo® system from Promega. The luciferase reaction in the presence of ATP is inhibited by AMP, a primary substrate of CD73. Addition of CD73 enzyme to the reaction converts AMP to adenosine, and release the inhibition, producing a luminescent signal. Inhibition of CD73 leads to the decrease of this luminescent signal.
Human CD73 (amino acid residues 27-549) with N-Terminal His tag was purified in E. coli. All the assay components were prepared in 50 mM HEPEs buffer (pH 7.4) with 0.01% Tween-20. The CD73 enzymatic assay was performed using 0.4 nM CD73 and 150 μM AMP. 9.5 μL of CD73 protein and 9.5 μL of AMP were added to the wells of a 384 well plate containing lpL of various concentrations of test compound or DMSO vehicle and incubated for 1 hour at room temperature. 16 wells containing CD73, AMP and 5% DMSO served as high control. 16 wells containing AMP and 5% DMSO served as low control. Enzymatic reaction was stopped and AMP level was measured indirectly by adding 5 μL of CellTiter-Glo® 2.0 reagent and 5 μL of ATP with a final concentration of 1 μM. Following incubation of the plate at room temperature for 30 minutes, luminescent signal was read on a Tecan plate reader. The percentage inhibition at individual concentrations relative to high and low controls was calculated. The data were analyzed by using nonlinear regression to generate IC50 values.
A general note: Cellular ATP, detected with luciferase, serves as a proxy for viable cell number.

A further assay concerns the target T2, human CD73 (Homo sapiens, UniProt P21589).
T2 construct: expressed in transfected cells
T2 sequence (P21589 27-549): T1 sequence (P21589 27-549)
Description: Inhibitor activity against CD73 in cell based assay (CD73 expressing CHO-K1 cells). The note with it: CHO-K1 cells expressing human CD73, 150 μM AMP, 4 hours of incubation; read-out: CHO-K1 CELL_VARIANT: CD73 IC50. As to the method:
Determine Inhibitor Activity Against CD73 in Cell Based Assay
CD73 expressing CHO-K1 cell clones were generated upon stable transfection of a plasmid expressing human CD73 under the control of CMV promoter. Cells were selected in Ham's F-12K (Kaighn's) media supplemented with 10% fetal bovine serum and 1 mg/ml G418 at 37° C. in a humidified incubator supplied with 5% CO2. The assays were performed as follows. Cells were seeded in a 96 well plate in 50 μL of culture media at a density of 1×10^4 per well. Compound at a maximal concentration of 5 mM was serially diluted 1:3 in DMSO for a total of 8 point titration. A 2 μL aliquot of each dilution point was added to […] culture media and 25 µL was added to each well, providing 10 μM compound at the maximum concentration point. AMP was diluted in culture media and 25 μL was added to each well with a final concentration of 150 μM. 4 wells containing 0.2% DMSO treated cells and AMP served as high controls and 4 wells containing media only with 0.2% DMSO and AMP served as low controls. After 4 hours of incubation, 20 μL of the supernatant was transferred to a 384 well plate. AMP level in supernatant was measured indirectly by adding 5 μL of CellTiter-Glo® 2.0 reagent and 5 μL of ATP with a final concentration of 1 μM. Following incubation of plate at room temperature for 30 minutes, luminescent signal was read on a Tecan plate reader. The percentage inhibition at individual concentrations relative to high and low controls was calculated. The data were analyzed by using nonlinear regression to generate ICso values.

In general, IC50 refers to the concentration at which inhibition is half-maximal.

Take `Cc1nn(CC(O)C(F)(F)F)c(C)c1-c1ccnc(O[C@@H]2CCN(c3cn[nH]c(=O)c3Cl)C2)c1` (stereo partly drawn) [P-0039, 4-chloro-5-((3R)-3-((4-(3,5-dimethyl-1-(3,3,3-trifluoro-2-hydroxypropyl)-1H-pyrazol-4-yl)pyridin-2-yl)oxy)pyrrolidin-1-yl)pyridazin-3(2H)-one]: the 50% inhibitory concentration (IC50) (in assay [1]; on human CD73) was 0.001 to 10 µM throughout.
As for `Cc1nn(CC(=O)NC2CC2)c(C)c1-c1ccnc(O[C@@H]2CCN(c3cn[nH]c(=O)c3Cl)C2)c1` [P-0040, (R)-2-(4-(2-((1-(5-chloro-6-oxo-1,6-dihydropyridazin-4-yl)pyrrolidin-3-yl)oxy)pyridin-4-yl)-3,5-dimethyl-1H-pyrazol-1-yl)-N-cyclopropylacetamide], the IC50 (in assay [1]; at human CD73) was 0.001 to 10 µM in each case.
Turning to `CNC(=O)Cn1nc(C)c(-c2ccnc(O[C@@H]3CCN(c4cn[nH]c(=O)c4Cl)C3)c2)c1C` [P-0041, (R)-2-(4-(2-((1-(5-chloro-6-oxo-1,6-dihydropyridazin-4-yl)pyrrolidin-3-yl)oxy)pyridin-4-yl)-3,5-dimethyl-1H-pyrazol-1-yl)-N-methylacetamide], the IC50 (in assay [1]; on human CD73) was 0.001 to 10 µM in each case.
Consider `Cc1nn(CC2CCCO2)c(C)c1-c1ccnc(O[C@@H]2CCN(c3cn[nH]c(=O)c3Cl)C2)c1` (stereo partly drawn) [P-0042, 4-chloro-5-((3R)-3-((4-(3,5-dimethyl-1-((tetrahydrofuran-2-yl)methyl)-1H-pyrazol-4-yl)pyridin-2-yl)oxy)pyrrolidin-1-yl)pyridazin-3(2H)-one], for which the IC50 (in assay [1]; at human CD73) was 0.001 to 10 µM each time.
As to `Cc1nn(CC2CCCOC2)c(C)c1-c1ccnc(O[C@@H]2CCN(c3cn[nH]c(=O)c3Cl)C2)c1` (stereo partly drawn) [P-0043, 4-chloro-5-((3R)-3-((4-(3,5-dimethyl-1-((tetrahydro-2H-pyran-3-yl)methyl)-1H-pyrazol-4-yl)pyridin-2-yl)oxy)pyrrolidin-1-yl)pyridazin-3(2H)-one], the IC50 (in assay [1]; on human CD73) was 0.001 to 10 µM throughout.
In the case of `Cc1nn(CCC#N)c(C)c1-c1ccnc(O[C@@H]2CCN(c3cn[nH]c(=O)c3Cl)C2)c1` [P-0044, (R)-3-(4-(2-((1-(5-chloro-6-oxo-1,6-dihydropyridazin-4-yl)pyrrolidin-3-yl)oxy)pyridin-4-yl)-3,5-dimethyl-1H-pyrazol-1-yl)propanenitrile], the IC50 (in assay [1]; on human CD73) was 0.001 to 10 µM in each case.
As for `Cc1nn(CC(=O)O)c(C)c1-c1ccnc(O[C@@H]2CCN(c3cn[nH]c(=O)c3Cl)C2)c1` [P-0045, (R)-2-(4-(2-((1-(5-chloro-6-oxo-1,6-dihydropyridazin-4-yl)pyrrolidin-3-yl)oxy)pyridin-4-yl)-3,5-dimethyl-1H-pyrazol-1-yl)acetic acid], the 50% inhibitory concentration (IC50) (in assay [1]; on human CD73) was 0.001 to 10 µM in each case.
In the case of `N#CC1CCC(c2ccnc(O[C@@H]3CCN(c4cnn(CCO)c(=O)c4Cl)C3)c2)CC1` (stereo partly drawn) [P-0046, (R)-4-(2-((1-(5-chloro-1-(2-hydroxyethyl)-6-oxo-1,6-dihydropyridazin-4-yl)pyrrolidin-3-yl)oxy)pyridin-4-yl)cyclohexane-1-carbonitrile], the IC50 (in assay [1]; on human CD73) was 0.001 to 10 µM in each case.
Regarding `O=C(O)C1CCC(c2ccnc(O[C@@H]3CCN(c4cn[nH]c(=O)c4Cl)C3)c2)CC1` (stereo partly drawn) [P-0047, (R)-4-(2-((1-(5-chloro-6-oxo-1,6-dihydropyridazin-4-yl)pyrrolidin-3-yl)oxy)pyridin-4-yl)cyclohexane-1-carboxylic acid], the IC50 (in assay [1]; at human CD73) was 0.001 to 10 µM in each case.
Take `O=c1[nH]ncc(N2CC[C@@H](Oc3cc(C4CCN(CC(F)(F)F)CC4)ccn3)C2)c1Cl` [P-0048, (R)-4-chloro-5-(3-((4-(1-(2,2,2-trifluoroethyl)piperidin-4-yl)pyridin-2-yl)oxy)pyrrolidin-1-yl)pyridazin-3(2H)-one]: the IC50 (in assay [1]; on human CD73) was 0.001 to 10 µM each time.
Turning to `N#CC1CC2CCC(C1)N2c1ccnc(O[C@@H]2CCN(c3cn[nH]c(=O)c3Cl)C2)c1` (stereo partly drawn) [P-0049, 8-(2-(((R)-1-(5-chloro-6-oxo-1,6-dihydropyridazin-4-yl)pyrrolidin-3-yl)oxy)pyridin-4-yl)-8-azabicyclo[3.2.1]octane-3-carbonitrile], the IC50 (in assay [1]; at human CD73) was 0.001 to 10 µM each time.
Turning to `O=C(O)C1CC=C(c2ccnc(O[C@@H]3CCN(c4cn[nH]c(=O)c4Cl)C3)c2)CC1` (stereo partly drawn) [P-0050, 4-(2-(((R)-1-(5-chloro-6-oxo-1,6-dihydropyridazin-4-yl)pyrrolidin-3-yl)oxy)pyridin-4-yl)cyclohex-3-ene-1-carboxylic acid], the IC50 (in assay [1]; at human CD73) was 0.001 to 10 µM throughout.
Regarding `Cc1noc(C)c1-c1ccnc(O[C@@H]2CCN(c3cn[nH]c(=O)c3C(F)(F)F)C2)c1` [P-0051, (R)-5-(3-((4-(3,5-dimethylisoxazol-4-yl)pyridin-2-yl)oxy)pyrrolidin-1-yl)-4-(trifluoromethyl)pyridazin-3(2H)-one], the IC50 (in assay [1]; at human CD73) was 0.001 to 10 µM each time.
In the case of `Cc1nn(CC2CC(C#N)C2)c(C)c1-c1cc(O[C@@H]2CCN(c3cn[nH]c(=O)c3Cl)C2)ncn1` (stereo partly drawn) [P-0052, (R)-3-((4-(6-((1-(5-chloro-6-oxo-1,6-dihydropyridazin-4-yl)pyrrolidin-3-yl)oxy)pyrimidin-4-yl)-3,5-dimethyl-1H-pyrazol-1-yl)methyl)cyclobutane-1-carbonitrile], the results for the IC50 (in assay [1]; at human CD73) were 0.001 to 10 µM and 10 to 100 µM, respectively.
The corresponding values for `CCC1(Cn2nc(C)c(-c3ccnc(O[C@@H]4CCN(c5cn[nH]c(=O)c5Cl)C4)c3)c2C)COC1` [P-0054, (R)-4-chloro-5-(3-((4-(1-((3-ethyloxetan-3-yl)methyl)-3,5-dimethyl-1H-pyrazol-4-yl)pyridin-2-yl)oxy)pyrrolidin-1-yl)pyridazin-3(2H)-one] are 0.001 to 10 µM and 0.001 to 10 µM.
The corresponding values for `COC(=O)C1CC(Cn2nc(C)c(-c3ccnc(O[C@@H]4CCN(c5cn[nH]c(=O)c5Cl)C4)c3)c2C)C1` (stereo partly drawn) [P-0055, methyl (R)-3-((4-(2-((1-(5-chloro-6-oxo-1,6-dihydropyridazin-4-yl)pyrrolidin-3-yl)oxy)pyridin-4-yl)-3,5-dimethyl-1H-pyrazol-1-yl)methyl)cyclobutane-1-carboxylate] are 0.001 to 10 µM and 0.001 to 10 µM.
The corresponding values for `Cc1nn(CC2CC(C(N)=O)C2)c(C)c1-c1ccnc(O[C@@H]2CCN(c3cn[nH]c(=O)c3Cl)C2)c1` (stereo partly drawn) [P-0056, (R)-3-((4-(2-((1-(5-chloro-6-oxo-1,6-dihydropyridazin-4-yl)pyrrolidin-3-yl)oxy)pyridin-4-yl)-3,5-dimethyl-1H-pyrazol-1-yl)methyl)cyclobutane-1-carboxamide] are 0.001 to 10 µM and 0.001 to 10 µM.
Regarding `Cc1nn(CC2CC(C#N)C2)c(C)c1-c1ccnc(O[C@@H]2CCN(c3cn[nH]c(=O)c3Cl)C2)c1` (stereo partly drawn) [P-0057, (R)-3-((4-(2-((1-(5-chloro-6-oxo-1,6-dihydropyridazin-4-yl)pyrrolidin-3-yl)oxy)pyridin-4-yl)-3,5-dimethyl-1H-pyrazol-1-yl)methyl)cyclobutane-1-carbonitrile], the IC50 (in assay [1]; at human CD73) was 0.001 to 10 µM throughout.

Values taken from patent publication US12202818B2, “Compounds and methods for CD73 modulation and indications therefor” (Opna Bio SA, priority 2020, dated 2025).
